# Data from patent US7629318B2, “Immunosuppressant compounds, methods and uses related thereto” (priority 2002, dated 2009).
# Several values for one entry are separate records, joined by “and”; a condition that tells them apart may be missing. Identical values can stand only once. Numbered stars: 1 amine (or outer) side, 2 acyl side, 3 side chain; on linkers, the order of the positions; unused ones are H or OH. Square brackets hold non-standard residues; d marks the D form. Peptide text beside a SMILES is read from it. * marks the point of attachment. Gly(1-amidinopiperidin-4-yl) = N=C(N)N1CCC([C@H](N)C(=O)O)CC1; X1 = CC(C)c1oc([C@H](CO)N[*:1])nc1C(=O)[*:2]; Pro(3R-Ph) = O=C(O)[C@H]1NCC[C@@H]1c1ccccc1; Tic = O=C(O)[C@@H]1Cc2ccccc2CN1; Cha = N[C@@H](CC1CCCCC1)C(=O)O; NHPhenethyl = c1ccc(CCN*)cc1; NMe(benzyl) = CN(Cc1ccccc1)*; Nle = CCCC[C@H](N)C(=O)O; X2 = OCCOCCN(Cc1ccccc1)*; NHBn = c1ccc(CN*)cc1
# Assays:
# [1] = target: Cathepsin D (EC 3.4.23.5 from bovine spleen) (Bos taurus, UniProt P80209)
# [2] = test system: T-cell proliferation, lymph node cells of chimeric 0401-IE transgenic mice; settings: for Immunsupressive assays DR4-LN (Max) % Inhibition: maximal inhibition; for IC50: read-out: Immunsupressive assays DR4-LN (IC50); for Immunsupressive assays DR4-LN (Max) % Inhibition / IC50: DR4-LN; for immunosuppressive properties as measured by a T-cell activation assay: dose-response curves
# In short: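 Antigen-primed lymph node cells (1.5×10^5/well) from mice lacking murine class II and carrying a chimeric human RA-associated class II transgene, cultured 3 days with ovalbumin at half-maximal dose plus compound (~0.1–200 uM) in serum-free HL-1. Proliferation read by 3H-thymidine incorporation over the final 16 h.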
# [3] = target: Cathepsin B1 (EC 3.4.22.1 from bovine spleen) (Bos taurus, UniProt P07688); settings: Cathepsin B, 4 h
# Procedure: The stability of the peptidomimetic compounds towards lysosomal degradation was examined by incubation with Cathepsin B1 (EC 3.4.22.1 from bovine spleen; Sigma-Aldrich, Taufkirchen; dissolved at 10000 U/l in ddH2O) and D (EC 3.4.23.5 from bovine spleen; Sigma-Aldrich, Taufkirchen; dissolved at 10000 U/l in ddH2O) for four hours at 37° C. using a compound concentration of 50 μM and an enzyme/substrate ratio of 0.4 U/μmol. The samples contained 25 ppm 4-isopropyl benzyl alcohol (IPBA; Sigma-Aldrich, Taufkirchen) as internal standard.
# Assay buffer was prepared by adding 35 μl of a 1% IPBA in DMSO solution and 28 μl of a 10000 U/l Cathepsin B1 or Cathepsin D stock solution to 14 ml of 100 mM sodium acetate, 1 mM EDTA, 1 mM DTT, pH 5.00 or 100 mM sodium acetate, pH 4.50, respectively. 8.8 μl of a 5 mM (or 4.4 μl of a 10 mM) compound stock solution (in 10% DMSO/water) were placed into a 1.5 ml Eppendorf tube. The reaction was started by adding 875 μl fully supplemented assay buffer to each tube, whirlmixing and incubation at 37° C. At 0 and 4 hours 400 μl samples were taken and the enzyme was inactivated by addition of 40 μl 150% TFA aq. The samples were kept frozen at −20° C. until analysis by RP-HPLC (200 μl injection volume; Nucleosil 100-5 C18, 12.5×4.6 cm; Gradient: 20-50% acetonitrile in 30 min).
# [4] = test system: T cell activation from 0401(DR4) chimeric MHCII-mice; test: In vivo inhibition of T cell activation by co-immunisation, DR4 mice immunised with HEL; set-up: species or system mouse; % Reduction of response to PPD(HEL): concentration or dose not given beside the values; settings: for % Reduction of response to HEL: DR4 mice co-immunised with HEL plus compound, mean % inhibition from the control over 3 concentrations of antigen (6.7, 20 and 60 ug); for % Reduction of response to PPD(HEL): specificity control: response to PPD in the same cell pool, HEL co-immunised mice
# From the text: Mouse strains DR4 and DR14 carry chimeric MHC-II transgenes that encode the N-terminal domains of the respective DR molecules (forming the peptide binding site) and the remaining (2nd extracellular domains, transmembrane and intracytoplasmic domains) of the murine class II molecule I Ed. These strains are deficient of other murine class II, and thus, all helper T cell responses are triggered by peptides presented in the respective human MHC-II binding site. As an initial in vivo test of subject inhibitors designed to bind to DR, DR-transgenic mice were co-immunized with a pre-defined dose of protein antigen and different amounts of the compound antagonist to be tested. In this set-up, both antigen and compound were emulsified together in complete Freund's adjuvant (CFA), and thus, a direct competition between the two components for presentation by DR was tested. Readout of the assay is ex vivo antigen-specific activation of T cells from regional lymph nodes explanted 9 days after co-immunization. In a typical experiment, antigen dose-response was investigated, and the curves from mice immunized with antigen were compared to those from mice co-immunized with antigen+compound. The dose response curves were generated using lymph node cells pooled at equal numbers from 2-3 mice per experimental group. The experimental system also permits assessment of inherent antigenicity of the compound antagonist. This was done by setting up a dose-response study from the same cell pool using different concentrations of the compund under investigation instead of the antigen. As a specificity control, the response to Purified Protein Derivative (PPD), the major protein component of CFA, was tested in the same cell pool.
# All Gpg conataining compounds have significant immunosupressive properties in one or both of the in-vivo models. Gpg-containing compounds also show improved activity or improved specificity over the Arg-containing equivilent. Further, compounds according to Formula I show activity in this assay.
# Compounds of the invention were injected as an Emulsion prepared using CFA (Bacto Adjuvant Complete H37 Ra, Difco, Order-No. 3113-60); proteins 10 mg/ml in PBS, inhibitors 5 μM in 10% DMSO. CFA, PBS, antigen, and inhibitor were placed in the barrel of a 5-ml syringe (total volume not more than 1 mL). The mixture was sonicated at an amplitude less than 40% (30-35%) for two separated 15 s periods. The emulsion should seem to be hard and not liquid at this point. A drop of emulsion placed on the surface of water should not melt. The resulting emulsion was pushed through the needle into a 1 ml syringe with a needle (Gr.18, 26G×1″), and air bubbles were removed. Mice were co-immunized with 50 μg protein and 210 nM compound antagonist in final 100 μl emulsion into the tail base. Antigen+Compound and CFA are mixed 1:1 vol/vol. The best results are obtained using DR 4 mice immunised with HEL and DR 14 mice immunized with OVA.
# Mice were injected at the tail-base as follows: Holding the tail of a mouse with thumb and middle finger, the index finger was placed under the base of the mouse's tail. The needle of the syringe was inserted about 1.5 cm from the tail base (hairy end) under the skin and pushed about 1 cm into the tail. 100 μl emulsion was injected into the mouse. After 9 days, mice were killed and lymph nodes removed.
# The inhibitory effect of the candidate compounds on T-cell activation was tested using T-cells and antigen-presenting cells isolated from the lymph nodes of chimeric DR4-IE transgenic mice (Taconic, USA) previously co-immunized with hen egg lysozyme plus compound, or DR14-IE transgenic mice co-immunized with ovalbumin plus compound according to standard procedures (Adorini et al., 1988, Mueller et al., 1990; Current Protocols in Immunology, Vol. 2, 7.21; Ito et al., 1996). […]
# Chain of Cathepsin D (EC 3.4.23.5 from bovine spleen) (P80209 45-390): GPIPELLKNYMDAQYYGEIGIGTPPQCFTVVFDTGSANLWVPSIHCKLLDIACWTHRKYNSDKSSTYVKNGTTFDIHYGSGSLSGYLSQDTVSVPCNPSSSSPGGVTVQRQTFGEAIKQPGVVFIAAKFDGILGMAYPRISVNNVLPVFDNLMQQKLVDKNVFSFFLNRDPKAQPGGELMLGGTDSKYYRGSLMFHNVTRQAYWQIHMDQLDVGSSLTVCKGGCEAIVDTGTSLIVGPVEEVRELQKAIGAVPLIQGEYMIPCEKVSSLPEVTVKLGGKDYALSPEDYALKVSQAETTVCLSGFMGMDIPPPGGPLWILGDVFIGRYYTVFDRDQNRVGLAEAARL
SMILES,Stability (Arbitrary units) Cath D 4 h [1] [Arbitrary units],Immunsupressive assays DR4-LN (Max) % Inhibition [2] [%],IC50 [2],Stability (Arbitrary units) Cath B 4 h [3] [Arbitrary units],% Reduction of response to HEL [4] [%],% Reduction of response to PPD(HEL) [4] [%],immunosuppressive properties as measured by a T-cell activation assay [2],"immunosuppressive properties as measured by a T-cell activation assay, versus Arg equivalent ([2]; dose-response curve, compared to the Arg-containing peptide)"
"CCCC[C@H](NC(=O)[C@@H]1Cc2ccccc2CN1C(=O)[C@H](CCCNC(=N)N)NC(=O)[C@H](CC1CCCCC1)NC(C)=O)C(=O)N(C)Cc1ccccc1 [Compound P71, Ac-Cha-Arg-Tic-Nle-N(Me)Bn] (Ac-[Cha]R[Tic][Nle]-{NMe(benzyl)})",104,102,19 µM,97,78.1,62.1,–,–
"CCCC[C@H](NC(=O)[C@@H]1Cc2ccccc2CN1C(=O)[C@@H](NC(=O)[C@H](CC1CCCCC1)NC(C)=O)C1CCN(C(=N)N)CC1)C(=O)N(C)Cc1ccccc1 [Compound P74, Ac-Cha-Gpg-Tic-Nle-N(Me)Bn] (Ac-[Cha][Gly(1-amidinopiperidin-4-yl)][Tic][Nle]-{NMe(benzyl)})",104,102,16 µM and 18 µM,105,51.6,12.8,immunosuppressive properties,–
"CCCC[C@H](NC(=O)[C@@H]1Cc2ccccc2CN1C(=O)[C@@H](NC(=O)[C@H](CC1CCCCC1)NC(C)=O)C1CCN(C(=N)N)CC1)C(=O)N1CC[C@H](c2ccccc2)[C@H]1C(=O)N[C@@H](CO)c1nc(C(=O)N(C)C)c(C(C)C)o1 [Compound P53, Ac-Cha-Gpg-Tic-Nle-βPhPro-[S(oxaz)L]-NMe2] (Ac-[Cha][Gly(1-amidinopiperidin-4-yl)][Tic][Nle][Pro(3R-Ph)][X1]-NMe2)",99,100,40 µM,97,68.4,10.2,immunosuppressive properties,improved immunosuppressive properties
"CCCC[C@H](NC(=O)[C@@H]1Cc2ccccc2CN1C(=O)[C@@H](NC(=O)[C@H](CC1CCCCC1)NC(C)=O)C1CCN(C(=N)N)CC1)C(=O)N(CCOCCO)Cc1ccccc1 [Compound P101, Ac-Cha-Gpg-Tic-Nle-N(Bn)CH2CH2OCH2CH2OH] (Ac-[Cha][Gly(1-amidinopiperidin-4-yl)][Tic][Nle]-X2)",106,100,69 µM and 66 µM,100,49.7,41.1,immunosuppressive properties,–
"CCCC[C@H](NC(=O)[C@@H]1Cc2ccccc2CN1C(=O)[C@@H](NC(=O)[C@H](CC1CCCCC1)NC(C)=O)C1CCN(C(=N)N)CC1)C(=O)NCc1ccccc1 [Compound P68, Ac-Cha-Gpg-Tic-Nle-N(H)Bn] (Ac-[Cha][Gly(1-amidinopiperidin-4-yl)][Tic][Nle]-NHBn)",105,102,18 µM,52,−3.2,25.1,–,–
"CCCC[C@H](NC(=O)[C@@H]1Cc2ccccc2CN1C(=O)[C@@H](NC(=O)[C@H](CC1CCCCC1)NC(C)=O)C1CCN(C(=N)N)CC1)C(=O)NCCc1ccccc1 [Compound P69, Ac-Cha-Gpg-Tic-Nle-N(H)CH2CH2Ph] (Ac-[Cha][Gly(1-amidinopiperidin-4-yl)][Tic][Nle]-NHPhenethyl)",100,101,19 µM,92,59,2,immunosuppressive properties,–
"CSCC[C@H](NC(=O)[C@@H]1Cc2ccccc2CN1C(=O)[C@@H](NC(=O)[C@H](CC1CCCCC1)NC(C)=O)C1CCN(C(=N)N)CC1)C(=O)N(CCOCCO)Cc1ccccc1 [Compound P102, Ac-Cha-Gpg-Tic-Met-N(Bn)CH2CH2OCH2CH2OH] (Ac-[Cha][Gly(1-amidinopiperidin-4-yl)][Tic]M-X2)",120,60,110 µM,116,41.3,31.2,–,–
